Literature values, collected in patent US20220218701A1, “COMPOSITIONS AND METHODS COMPRISING ENDOTHELIN A RECEPTOR ANTAGONISTS AND ANDROGEN THERAPIES” (priority 2019, published 2022).

Experiments:
metastatic CRPC = settings: cited from earlier work
[1] = test system: breast cancer osteosclerotic bone metastasis; settings: mouse, in vivo; cited from earlier work
[2] = test system: prostate cancer bone metastasis; settings: in vivo; cited from earlier work
osteoblast = settings: cited from earlier work
[3] = test system: castrate-resistant prostate cancer (CRPC); settings: phase 2, 288 men with CRPC, cited from earlier work
[4] = test system: metastatic prostate cancer; settings: cited from earlier work

Question: With `CCCCN(CCCC)C(=O)CN1C[C@H](c2ccc3c(c2)OCO3)[C@@H](C(=O)O)[C@@H]1c1ccc(OC)cc1` [atrasentan] as the molecule, how does the “overall or progression-free survival compared to placebo” value (metastatic CRPC; men with metastatic CRPC treated with docetaxel) read?
Answer: did not improve

Question: What about the survival (metastatic CRPC; patients with the highest circulating levels of bone turnover markers) of the same molecule?
Answer: survival benefit

Question: And the “formation of osteoblastic lesions” value [1]?
Answer: blocked

Question: And the “tumor progression outside of bone” value [1]?
Answer: not tumor progression outside of bone

Question: What about the bone lesions [2] of the same molecule?
Answer: significantly reduced

Question: What about the “lesions outside of the skeleton such as adrenal gland and liver” value [2] of the same molecule?
Answer: not lesions outside of the skeleton

Question: And the “anabolic effects of ET-1 on the osteoblast” value (osteoblast)?
Answer: block

Question: And the “prostate-specific antigen (PSA) progression” value [3]?
Answer: delayed

Question: And the time to progression ([3]; increased from 129)?
Answer: 196 days

Question: What about the “time to progression (primary endpoint)” value ([4]; phase 3, 809 men with metastatic disease) of the same molecule?
Answer: did not reduce

Question: And the “bone alkaline phosphatase progression” value ([4]; phase 3, secondary analyses)?
Answer: did reduce
